For 123 compounds, melting point results are on record in a melting point compilation (Tetko et al.).

In general, melting point refers to the temperature of the solid-liquid transition. The compound `CCOC(=O)Cn1[nH]cc(C#N)c1=N` displayed a melting point of 121 to 123 °C.

As for `Cc1nn(-c2ccccc2)c(C(F)(F)Cl)c1C(=O)O`, the melting point lay within 144 to 146 °C.

`O=C1CCC(Cc2ccc(O)cc2)O1` (stereo not drawn) came in with a melting point of 104 to 106 °C.

With `CNc1cnc(Cl)cc1C(=O)O`, the melting point was in the range of 279 to 281 °C.

Regarding `Cc1ccc(-n2nnc(C(=O)O)c2C(C)C)cc1`, the melting point was 176 to 178 °C.

Regarding `NC(=S)Cc1nc2ccccc2[nH]1`, the melting point fell in the range of 204 to 207 °C.

`CC(N)c1ccc(N2CCOCC2)cc1` (stereo not drawn) yielded a melting point of 61 to 63 °C.

As for `Nc1ccc(Cl)cc1-c1nc(C2CCCC2)no1`, the melting point is 107 to 109 °C.

`Cc1ccc2[nH]cc(C(=O)C(F)(F)F)c2c1` registered a melting point of 243 to 245 °C.

With `O=Cc1csc(-c2ccc(F)cc2)n1`, the melting point lay within 99 to 101 °C.

For the compound `C#Cc1cccc(NCC(=O)NC)c1`, the melting point is 127 to 129 °C.

The compound `CN(C)c1ccc(C=C(C#N)C(=O)O)cc1` yielded a melting point of 224 to 226 °C.

Regarding `O=C(c1ccccn1)c1cc2ccccc2o1`, the melting point fell in the range of 96 to 98 °C.

`Cc1nc(-c2ccccc2)c(N)n1C` returned a melting point of 145 to 147 °C.

Compound `CC(C)(C)OC(=O)N1CCc2[nH]c(=O)c(C#N)cc2C1` had a melting point of 239 to 241 °C.

Regarding `CC(O)C1NC(=O)NC1=O` (stereo not drawn), the melting point was 179 to 181 °C.

Compound `Nc1ccc2c(c1)C(=O)N(CC1CC1)C2=O` yielded a melting point of 163 to 165 °C.

On to `Cc1oncc1C(=O)Nc1ccc(O)c(C(=O)O)c1`, for which the melting point lay in the range of 249 to 251 °C.

In turn, `CCC1(c2ccc(O)cc2)NC(=O)NC1=O` (stereo not drawn) registered a melting point of 279 to 281 °C.

For the compound `NC(=O)c1ccncc1F`, the melting point was in the range of 126 to 128 °C.

As to `Nc1ccc(OCc2cccs2)cc1`, the melting point was 61 to 63 °C.

Compound `NC(=O)Cn1cnc2cc(C(=O)O)ccc21` displayed a melting point of 298 to 300 °C.

Take `O=C1CCc2ccccc2CN1`: the melting point lay within 124 to 126 °C.

In turn, `O=C(O)c1nn(-c2ccccc2Cl)c2c1CCCC2` registered a melting point of 232 to 234 °C.

The compound `NC(C(=O)O)c1cc(F)ccc1F` (stereo not drawn) registered a melting point of 229 to 231 °C.

Take `O=[N+]([O-])c1cc(S(=O)(=O)Cl)ccc1O`: the melting point is 52 to 54 °C.

`COc1cc([N+](=O)[O-])cc2sc(N)nc12`: the melting point lay within 279 to 281 °C.

Take `N#Cc1ccc(N2C(=O)NC(CCC(=O)O)C2=O)cc1` (stereo not drawn): the melting point is 220 to 222 °C.

On to `NC(=S)c1ccco1`, for which the melting point lay within 132 to 134 °C.

Compound `Nc1noc(-c2ccoc2)n1` yielded a melting point of 179 to 181 °C.

As for `Cc1cc(C)n(CCS(C)(=O)=O)n1`, the melting point was in the range of 90 to 92 °C.

For `COc1ccc(C2(C(=O)O)CCCC2)cc1OC`, the melting point lay in the range of 140 to 142 °C.

As to `COc1ccc(CNc2ccncn2)cc1OC`, the melting point is 124 to 126 °C.

For the compound `O=C(Nc1cc(F)ccc1C(=O)O)c1ccoc1`, the melting point was 253 to 255 °C.

Consider `Cc1c[nH]c(=O)n1-c1ccccc1F`, for which the melting point lay in the range of 211 to 213 °C.

The compound `CS(=O)(=O)N1CCCc2cc(C(=O)O)ccc21` had a melting point of 218 to 220 °C.

`Sc1ncccc1Cl` returned a melting point of 204 to 206 °C.

`CCNC(=O)Nc1cc(F)ccc1N` yielded a melting point of 147 to 149 °C.

Regarding `O=[N+]([O-])c1ccc(O)c(-n2cnnn2)c1`, the melting point was 199 to 201 °C.

Consider `COc1ccc(NC(=O)CCCl)cc1`, for which the melting point fell in the range of 120 to 122 °C.

The compound `CC(=O)c1c(C)nn(C(C)C)c1C` had a melting point of 74 to 76 °C.

Turning to `NS(=O)(=O)CCc1ccccc1`, the melting point was 122 to 124 °C.

In turn, `Cc1cccc(NC(=O)[C@@H]2CCCN2)n1` yielded a melting point of 62 to 64 °C.

The compound `Cc1csc(NCC(F)(F)F)n1` gave a melting point of 142 to 144 °C.

In the case of `O=C1CCC(Cc2ccc(Cl)cc2)C(=O)N1` (stereo not drawn), the melting point lay within 150 to 152 °C.

`COc1ccc(C(=O)c2cccc3ccccc23)cc1` had a melting point of 95 to 97 °C.

On to `Cc1ccc(C)c(C(C)Nc2ccc(C(=O)O)cc2C)c1` (stereo not drawn), for which the melting point is 211 to 213 °C.

`O=C(O)c1cnn(-c2ncccc2Cl)c1C(F)F`: the melting point lay in the range of 178 to 180 °C.

Compound `CC(C)(C)c1cc(N)n(-c2cccc(Cl)c2)n1` had a melting point of 99 to 101 °C.

`CCOC(=O)c1[nH]c(C)c(C(=O)OCC)c1CC` had a melting point of 108 to 110 °C.

Take `O=Cc1cc2ccccc2nc1N1CCCCC1`: the melting point was 118 to 120 °C.

For `CC(C)Oc1ccc(N)cc1C#N`, the melting point lay within 39 to 41 °C.

`Cc1nnc2n1CC(C(=O)O)CC2` (stereo not drawn) returned a melting point of 249 to 251 °C.

`Cc1cc(C(=O)O)c(N)cc1F` gave a melting point of 219 to 221 °C.

`Cc1n[nH]c(N)c1I` gave a melting point of 102 to 104 °C.

`COC(=O)c1cnc(NC2CC2)s1` yielded a melting point of 157 to 159 °C.

In turn, `Nc1c(-c2ccccn2)nc2ccccn12` showed a melting point of 199 to 201 °C.

For the compound `Cc1ccc(C)n1-c1sccc1C(=O)O`, the melting point lay within 168 to 170 °C.

As to `Cc1cccc(C)c1-n1nnnc1S`, the melting point fell in the range of 146 to 148 °C.

The compound `Cc1cc(NN)nc(-c2ccccn2)n1` yielded a melting point of 175 to 177 °C.

In turn, `CC(C)(C)Cc1noc2ncc(C(=O)O)cc12` displayed a melting point of 231 to 233 °C.

As for `N#Cc1cnc(C(=O)O)c(Cl)c1`, the melting point lay within 149 to 151 °C.

In turn, `O=C(O)CNC(=O)c1ccc(Cl)cc1` showed a melting point of 214 to 216 °C.

`CN1CCC(n2nccc2N)CC1` registered a melting point of 98 to 100 °C.

Turning to `COCc1ccccc1C(=O)O`, the melting point fell in the range of 94 to 96 °C.

Regarding `COCCOc1ccc(CC#N)cc1`, the melting point lay in the range of 49 to 51 °C.

The compound `CC(=O)c1ccc(OCC(=O)N(C)C)cc1` yielded a melting point of 125 to 127 °C.

`CN(C)c1ccc(-n2ccnc2S)cc1`: the melting point lay in the range of 249 to 251 °C.

For `N#Cc1ccc(OCCBr)cc1`, the melting point lay within 55 to 59 °C.

Turning to `O=[N+]([O-])c1cnc(O)c(Cl)c1`, the melting point is 198 to 200 °C.

`COc1cc(Cl)ccc1S(N)(=O)=O` showed a melting point of 169 to 171 °C.

As to `Cc1nc2ccccc2n1N`, the melting point fell in the range of 145 to 147 °C.

In the case of `COc1ccc(F)cc1[N+](=O)[O-]`, the melting point is 62 to 64 °C.

Regarding `Cc1ccc(C(=O)O)c(Cl)c1C`, the melting point lay within 153 to 155 °C.

`COc1cccc(NCCC#N)c1` gave a melting point of 81 to 83 °C.

`NS(=O)(=O)c1cccc2c1N=S=N2` returned a melting point of 128 to 130 °C.

For `Cc1cc(C)nc(-n2nc(C)cc2NC(=O)CCl)n1`, the melting point fell in the range of 185 to 187 °C.

Compound `COc1cc(C(=O)O)cc(Cl)c1OC` showed a melting point of 191 to 193 °C.

For `CN(C)C(=O)c1cccc(S(N)(=O)=O)c1`, the melting point fell in the range of 121 to 123 °C.

`Nc1ccn(Cc2ccccn2)n1` yielded a melting point of 88 to 90 °C.

`COC(=O)c1cc(Cl)c2cc(Cl)ccc2n1` yielded a melting point of 157 to 159 °C.

For `Cc1oc(C)c(C(=O)O)c1C`, the melting point lay within 131 to 133 °C.

Turning to `OCCc1ccc2ccccc2c1`, the melting point lay within 66 to 68 °C.

With `Nc1ccn(Cc2cccnc2)n1`, the melting point fell in the range of 88 to 90 °C.

In turn, `ClCc1coc(-c2cccc(Cl)c2)n1` yielded a melting point of 76 to 78 °C.

Compound `CC(C)(C)OC(=O)N1CCCNC(=O)C1` registered a melting point of 112 to 114 °C.

As to `O=C(O)/C=C/c1ccccn1`, the melting point is 201 to 203 °C.

With `NCCNC(CC(=O)O)C(N)=O` (stereo not drawn), the melting point was in the range of 161 to 163 °C.

In turn, `O=C(CBr)c1ccc2c(c1)CCC2` returned a melting point of 57 to 59 °C.

`OCc1cnc(N2CCOCC2)s1` displayed a melting point of 101 to 103 °C.

Compound `Cc1ccc(C#N)cc1S(=O)(=O)Cl` returned a melting point of 82 to 84 °C.

Compound `O=C(O)c1cnc2sccn2c1=O` returned a melting point of 269 to 271 °C.

Consider `Cc1c(CC(=O)O)nnn1-c1ccccc1`, for which the melting point lay within 169 to 171 °C.

On to `Nc1cc(Cl)cc(C(=O)O)c1F`, for which the melting point is 196 to 198 °C.

Turning to `O=C(O)CSc1cc(Cl)ccc1Cl`, the melting point is 129 to 131 °C.

`COC(=O)c1ccc(C(=O)OC)c(S(=O)(=O)Cl)c1` gave a melting point of 63 to 67 °C.

Compound `Cc1c[nH]c(=O)n1-c1ccccc1` returned a melting point of 210 to 212 °C.

With `O=C1NC(=O)C(c2ccccc2OC(F)(F)F)N1` (stereo not drawn), the melting point fell in the range of 156 to 158 °C.

Turning to `O=C(CCl)NCc1ccccc1S(=O)(=O)N1CCOCC1`, the melting point was 123 to 125 °C.

Compound `NS(=O)(=O)c1cnc2c(c1)CCC2` had a melting point of 188 to 190 °C.

The compound `Nc1cccc(-c2nnnn2C2CC2)c1` displayed a melting point of 137 to 139 °C.

The compound `NC1CCN(c2ccccc2F)C1=O` (stereo not drawn) registered a melting point of 67 to 69 °C.

In the case of `O=C(O)c1ccc2c(=O)n3c(nc2c1)CCC3`, the melting point fell in the range of 354 to 356 °C.

Take `COc1ccc(CN2CCCC2)cc1N`: the melting point is 46 to 48 °C.

Take `O=C1NS(=O)(=O)c2ccc(Br)cc21`: the melting point was in the range of 245 to 247 °C.

As for `CCOC(=O)C(=O)Nc1ccc(C)cc1`, the melting point is 64 to 66 °C.

Compound `Cc1coc(-c2ccc(C)c(N)c2)n1` showed a melting point of 114 to 116 °C.

`CCC(=O)N(c1nnc(S)s1)C1CC1` displayed a melting point of 195 to 197 °C.

`CC(CC(N)=NO)N(C)C(=O)OC(C)(C)C` (stereo not drawn): the melting point fell in the range of 102 to 104 °C.

`CC(C)(C(=O)O)S(=O)(=O)c1ccc(Br)cc1`: the melting point lay in the range of 162 to 164 °C.

`CC(C)(N)CN1CCN(c2ccccc2)CC1` returned a melting point of 84 to 86 °C.

With `O=C(O)CCSCC(=O)Nc1ccc(Br)cc1`, the melting point was 148 to 150 °C.

`O=C(O)c1ccccc1-c1ncc(-c2ccccc2F)o1` yielded a melting point of 184 to 186 °C.

With `Cn1cc([N+](=O)[O-])cn1`, the melting point lay within 91 to 93 °C.

`CC(=O)c1ccc(-c2ccc(C(=O)O)o2)cc1` had a melting point of 219 to 221 °C.

In turn, `Nc1ncc([N+](=O)[O-])cc1C(=O)O` showed a melting point of 239 to 241 °C.

As to `O=C1COc2cc(S(=O)(=O)Cl)c(Cl)cc2N1`, the melting point is 248 to 250 °C.

Compound `Nc1cccc(CN2CCN(c3ccccn3)CC2)c1` displayed a melting point of 168 to 170 °C.

Compound `CN(c1ccc(C(=O)CCl)cc1)S(C)(=O)=O` came in with a melting point of 75 to 77 °C.

As to `Cc1csc2nc(CCl)cc(=O)n12`, the melting point lay within 100 to 104 °C.

`Cc1cc(Cl)cc2nc(S)oc12` showed a melting point of 253 to 255 °C.

The compound `Brc1cccc(-c2ncc[nH]2)c1` came in with a melting point of 129 to 131 °C.

Compound `Cc1c(N)cccc1C(=O)N1CCSCC1` returned a melting point of 155 to 157 °C.
